Experimental data reported in patent publication US6177592A, “Compounds” (priority 1997, dated 2001).

System: heat shock protein of 70 kDa (HSP70)
Experiment: Induction of heat shock protein of 70 kDa in HL-60
Type: cell-based, human
Set-up: key: -: no induction was noted; ±: the induction was slight; indicates degree of intensity of induction and the more the numbers of "+", the more the intensity of induction; ++: the more the numbers of "+", the more the intensity of induction; +++: the more the numbers of "+", the more the intensity of induction
Conditions: 5 μM CM

SMILES: N[C@@H](CSC1C=C(O)C(=O)C1)C(=O)O (stereo partly shown) [CM]
- Induction of Heat Shock Protein: -
